Measured values from US20210070748A1, “INHIBITORS OF BRUTONS TYROSINE KINASE” (Pharmacyclics LLC, priority 2015, published 2021).
Read-outs that look alike come from different tables or passages of the source.

Legend:
Assay type in all cases: biochemical
BTK-WT = molecular target: T1, BTK-WT (Homo sapiens, UniProt Q06187); test: Btk in vitro inhibitory activity (one of Method A TR-FRET, Method B electrophoretic mobility shift, Method C radiometric filter binding); conditions: read-out: IC50 BTK-WT
T1 construct: purified from insect cells as a full-length construct containing an N-terminal 6X-His tag; His6 (N); made in house; host or cells: insect cells (baculovirus Sf21 in Method B)
T1 sequence (Q06187 whole entry): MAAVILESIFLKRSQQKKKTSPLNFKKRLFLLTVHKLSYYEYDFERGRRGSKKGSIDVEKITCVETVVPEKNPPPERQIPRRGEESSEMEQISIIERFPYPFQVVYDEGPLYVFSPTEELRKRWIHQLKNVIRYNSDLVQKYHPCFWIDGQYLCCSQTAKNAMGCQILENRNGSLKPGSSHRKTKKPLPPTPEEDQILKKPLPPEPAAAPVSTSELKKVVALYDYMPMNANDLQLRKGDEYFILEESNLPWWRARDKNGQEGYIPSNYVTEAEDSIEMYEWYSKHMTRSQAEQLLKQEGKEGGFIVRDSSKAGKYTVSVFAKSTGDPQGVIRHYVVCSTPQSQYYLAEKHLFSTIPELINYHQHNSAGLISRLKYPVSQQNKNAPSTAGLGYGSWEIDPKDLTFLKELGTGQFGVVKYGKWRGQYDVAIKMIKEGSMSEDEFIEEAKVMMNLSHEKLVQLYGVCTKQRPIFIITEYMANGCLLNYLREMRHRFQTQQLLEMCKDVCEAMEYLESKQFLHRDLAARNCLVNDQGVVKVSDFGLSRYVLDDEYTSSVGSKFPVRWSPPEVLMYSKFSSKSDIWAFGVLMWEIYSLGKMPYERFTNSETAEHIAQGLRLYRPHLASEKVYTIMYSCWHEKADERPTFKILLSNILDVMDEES

LCK = LCK (Homo sapiens, UniProt P06239); test: Inhibition of a panel of kinases, in vitro HotSpot kinase assay: LCK; conditions: read-out: IC50 LCK
Chain of LCK (P06239 whole entry): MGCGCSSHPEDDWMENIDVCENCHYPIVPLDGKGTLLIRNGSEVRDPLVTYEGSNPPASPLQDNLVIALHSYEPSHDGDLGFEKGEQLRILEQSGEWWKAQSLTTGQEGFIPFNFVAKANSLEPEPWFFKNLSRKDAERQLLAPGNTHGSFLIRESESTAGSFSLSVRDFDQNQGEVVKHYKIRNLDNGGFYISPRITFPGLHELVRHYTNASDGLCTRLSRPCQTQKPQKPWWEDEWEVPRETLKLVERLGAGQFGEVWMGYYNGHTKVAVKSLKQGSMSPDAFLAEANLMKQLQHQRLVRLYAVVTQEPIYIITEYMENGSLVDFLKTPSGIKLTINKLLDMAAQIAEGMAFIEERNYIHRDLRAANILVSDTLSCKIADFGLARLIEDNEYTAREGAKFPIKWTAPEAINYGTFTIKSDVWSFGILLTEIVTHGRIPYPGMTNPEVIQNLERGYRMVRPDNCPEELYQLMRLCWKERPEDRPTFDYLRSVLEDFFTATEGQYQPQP

ITK = molecular target: T2, ITK (Homo sapiens, UniProt Q08881); test: Inhibition of a panel of kinases, in vitro HotSpot kinase assay: ITK
T2 sequence (Q08881 1-620): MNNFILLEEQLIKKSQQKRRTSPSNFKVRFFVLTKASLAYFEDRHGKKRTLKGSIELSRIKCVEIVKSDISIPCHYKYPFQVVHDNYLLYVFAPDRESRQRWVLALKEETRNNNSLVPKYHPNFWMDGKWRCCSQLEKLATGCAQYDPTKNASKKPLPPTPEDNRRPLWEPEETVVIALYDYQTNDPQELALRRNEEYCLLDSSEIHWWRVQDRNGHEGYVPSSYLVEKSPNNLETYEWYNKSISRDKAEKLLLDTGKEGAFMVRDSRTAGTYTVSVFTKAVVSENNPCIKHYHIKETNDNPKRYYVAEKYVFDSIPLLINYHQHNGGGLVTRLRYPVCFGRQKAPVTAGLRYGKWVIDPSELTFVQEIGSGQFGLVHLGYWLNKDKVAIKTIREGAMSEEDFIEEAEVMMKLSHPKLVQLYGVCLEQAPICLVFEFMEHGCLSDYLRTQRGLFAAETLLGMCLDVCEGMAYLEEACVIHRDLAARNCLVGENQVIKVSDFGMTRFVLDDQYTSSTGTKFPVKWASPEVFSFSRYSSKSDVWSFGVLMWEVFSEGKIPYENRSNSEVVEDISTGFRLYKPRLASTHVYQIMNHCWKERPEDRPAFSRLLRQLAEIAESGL
Method: (§1) The degree of inhibition of a panel of kinases is determined using the in vitro HotSpot kinase assay (purified enzymes, ^33P-ATP, an appropriate substrate and 1 μM ATP).

EGFR = EGFR (Homo sapiens, UniProt P00533); test: Inhibition of a panel of kinases, in vitro HotSpot kinase assay: EGFR
Chain of EGFR (P00533 25-1210): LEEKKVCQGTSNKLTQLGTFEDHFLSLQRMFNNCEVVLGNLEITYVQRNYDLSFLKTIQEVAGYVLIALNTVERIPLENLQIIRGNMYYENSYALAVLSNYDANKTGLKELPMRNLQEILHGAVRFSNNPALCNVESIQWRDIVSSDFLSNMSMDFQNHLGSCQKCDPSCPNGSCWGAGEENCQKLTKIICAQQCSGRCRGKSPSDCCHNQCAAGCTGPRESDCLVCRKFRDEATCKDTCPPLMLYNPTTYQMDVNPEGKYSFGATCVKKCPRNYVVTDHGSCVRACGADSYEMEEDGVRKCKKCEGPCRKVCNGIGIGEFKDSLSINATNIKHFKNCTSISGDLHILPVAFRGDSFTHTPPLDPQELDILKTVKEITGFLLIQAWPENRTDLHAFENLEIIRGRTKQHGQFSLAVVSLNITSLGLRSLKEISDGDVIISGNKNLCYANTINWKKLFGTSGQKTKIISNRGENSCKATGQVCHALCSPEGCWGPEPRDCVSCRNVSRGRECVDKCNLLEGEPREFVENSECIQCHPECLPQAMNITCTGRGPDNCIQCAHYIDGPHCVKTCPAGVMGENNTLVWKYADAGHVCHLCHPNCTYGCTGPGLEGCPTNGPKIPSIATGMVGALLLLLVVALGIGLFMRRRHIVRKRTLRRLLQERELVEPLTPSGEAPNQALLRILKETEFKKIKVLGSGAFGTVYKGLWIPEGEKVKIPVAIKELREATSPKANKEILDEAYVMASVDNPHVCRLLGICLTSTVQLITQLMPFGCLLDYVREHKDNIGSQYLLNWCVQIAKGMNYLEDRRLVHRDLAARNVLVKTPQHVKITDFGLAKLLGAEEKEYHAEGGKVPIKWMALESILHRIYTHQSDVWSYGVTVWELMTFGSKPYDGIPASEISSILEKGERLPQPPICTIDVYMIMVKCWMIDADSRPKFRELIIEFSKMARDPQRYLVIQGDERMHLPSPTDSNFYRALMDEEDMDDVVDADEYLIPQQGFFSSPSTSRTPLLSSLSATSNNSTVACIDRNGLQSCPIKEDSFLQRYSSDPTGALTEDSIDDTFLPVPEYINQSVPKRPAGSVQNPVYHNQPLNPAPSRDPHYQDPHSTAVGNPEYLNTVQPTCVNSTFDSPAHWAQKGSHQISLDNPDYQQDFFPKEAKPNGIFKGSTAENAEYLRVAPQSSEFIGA
Method: as §1

SRC = SRC (Homo sapiens, UniProt P12931); test: Inhibition of a panel of kinases, in vitro HotSpot kinase assay: SRC; conditions: D-compounds panel data; 1 μM ATP
Chain of SRC (P12931 whole entry): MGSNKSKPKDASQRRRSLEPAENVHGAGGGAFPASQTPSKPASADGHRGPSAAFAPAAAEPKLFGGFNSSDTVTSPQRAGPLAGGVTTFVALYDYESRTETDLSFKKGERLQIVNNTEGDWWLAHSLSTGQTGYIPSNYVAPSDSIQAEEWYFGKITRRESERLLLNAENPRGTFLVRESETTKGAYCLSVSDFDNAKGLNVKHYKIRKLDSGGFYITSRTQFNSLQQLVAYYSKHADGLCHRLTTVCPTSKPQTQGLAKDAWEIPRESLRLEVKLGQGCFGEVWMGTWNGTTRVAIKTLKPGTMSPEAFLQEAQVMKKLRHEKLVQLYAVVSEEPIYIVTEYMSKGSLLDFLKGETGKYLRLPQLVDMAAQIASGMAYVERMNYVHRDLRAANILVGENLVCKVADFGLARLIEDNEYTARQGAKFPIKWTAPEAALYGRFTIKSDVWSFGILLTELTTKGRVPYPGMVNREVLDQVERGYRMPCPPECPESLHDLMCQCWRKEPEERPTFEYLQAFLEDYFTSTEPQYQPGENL
Method: as §1

TEC = molecular target: T3, TEC (Homo sapiens, UniProt P42680); test: Inhibition of a panel of kinases, in vitro HotSpot kinase assay: TEC
T3 sequence (P42680 1-631): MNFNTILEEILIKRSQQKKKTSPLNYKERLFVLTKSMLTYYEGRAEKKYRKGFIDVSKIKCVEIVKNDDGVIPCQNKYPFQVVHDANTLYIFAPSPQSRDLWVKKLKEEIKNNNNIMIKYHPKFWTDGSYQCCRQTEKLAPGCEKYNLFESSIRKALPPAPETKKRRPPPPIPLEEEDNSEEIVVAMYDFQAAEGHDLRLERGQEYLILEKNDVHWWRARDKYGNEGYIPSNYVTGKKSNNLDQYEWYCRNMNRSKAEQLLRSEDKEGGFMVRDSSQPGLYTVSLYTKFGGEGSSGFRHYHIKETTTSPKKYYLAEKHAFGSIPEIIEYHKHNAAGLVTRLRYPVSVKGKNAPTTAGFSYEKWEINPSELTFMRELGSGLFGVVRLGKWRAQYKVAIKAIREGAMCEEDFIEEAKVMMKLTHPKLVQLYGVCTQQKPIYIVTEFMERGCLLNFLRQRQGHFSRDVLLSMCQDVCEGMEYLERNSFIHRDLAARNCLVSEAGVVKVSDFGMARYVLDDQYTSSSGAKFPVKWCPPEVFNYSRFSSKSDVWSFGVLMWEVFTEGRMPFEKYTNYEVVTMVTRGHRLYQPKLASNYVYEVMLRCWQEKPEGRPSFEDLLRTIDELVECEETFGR
Method: as §1

[1] = D-compounds panel data, 1 μM ATP

IC50 (BTK-WT; D-compounds panel data) [nM]	IC50 (LCK; [1]) [nM]	IC50 (ITK; [1]) [nM]	IC50 (EGFR; [1]) [nM]	IC50 (SRC) [nM]	IC50 (TEC; [1]) [nM]	IC50 (BTK-WT; E compounds, Table 17) [nM]	IC50 (LCK; E compounds, Table 17) [nM]	IC50 (ITK; E compounds, Table 17) [nM]	IC50 (EGFR; E compounds, Table 17) [nM]	IC50 (TEC; E compounds, Table 17) [nM]	Structure (SMILES)
10 to 100	100 to 1000	1000 to 10000	100 to 1000	1000 to 10000	10 to 100						C[C@@H]1[C@H](NC(=O)c2ccc(C3CC3)cc2)CCCN1c1cnc(C(N)=O)c(Nc2ccc(N3CCCCC3)cc2)n1 [Example D-37, 5-[(2R,3R)-3-(4-cyclopropylbenzamido)-2-methylpiperidin-1-yl]-3-{[4-(piperidin-1-yl)phenyl]amino}pyrazine-2-carboxamide]
						≤ 10	100 to 1000	10 to 100	10 to 100	≤ 10	C=CC(=O)N1CCC[C@@H](Nc2nnc(C(N)=O)c(Nc3cccc(-n4nccn4)c3)n2)C1 [Example E-61, (R)-5-(3-(2H-1,2,3-triazol-2-yl)phenylamino)-3-(1-acryloylpiperidin-3-ylamino)-1,2,4-triazine-6-carboxamide]
						≤ 10		≤ 10	10 to 100	≤ 10	C=CC(=O)N1CCC[C@@H](Nc2nnc(C(N)=O)c(Nc3ccc(N4CCOCC4=O)cc3)n2)C1 [Example E-62, (R)-3-(1-acryloylpiperidin-3-ylamino)-5-(4-(3-oxomorpholino)phenyl-amino)-1,2,4-triazine-6-carboxamide]
						≤ 10		10 to 100	≤ 10	≤ 10	C=CC(=O)N1CCC[C@@H](Nc2nnc(C(N)=O)c(Nc3ccc(-c4nccs4)cc3)n2)C1 [Example E-63, (R)-3-(1-acryloylpiperidin-3-ylamino)-5-(4-(thiazol-2-yl)phenylamino)-1,2,4-triazine-6-carboxamide]
						≤ 10		10 to 100	≤ 10	≤ 10	C=CC(=O)N1CCC[C@@H](Nc2nnc(C(N)=O)c(Nc3ccc(-c4nn[nH]n4)cc3)n2)C1 [Example E-64, (R)-5-(4-(2H-tetrazol-5-yl)phenylamino)-3-(1-acryloylpiperidin-3-ylamino)-1,2,4-triazine-6-carboxamide]
						≤ 10	100 to 1000	10 to 100	10 to 100	≤ 10	C=CC(=O)N1CCC[C@@H](Nc2nnc(C(N)=O)c(Nc3ccc(-n4nccn4)cc3)n2)C1 [Example E-67, (R)-5-(4-(2H-1,2,3-triazol-2-yl)phenylamino)-3-(1-acryloylpiperidin-3-ylamino)-1,2,4-triazine-6-carboxamide]
						≤ 10	100 to 1000	≤ 10	≤ 10	≤ 10	C=CC(=O)N1CCC[C@@H](Nc2nnc(C(N)=O)c(Nc3ccc4ncccc4c3)n2)C1 [Example E-68, (R)-3-(1-acryloylpiperidin-3-ylamino)-5-(quinolin-6-ylamino)-1,2,4-triazine-6-carboxamide]
						≤ 10		100 to 1000	100 to 1000	≤ 10	C=CC(=O)N[C@@H]1CCCN(c2cnc(C(N)=O)c(Nc3cnn(C)c3)n2)[C@@H]1C [Example E-98, 5-((2R,3R)-3-acrylamido-2-methylpiperidin-1-yl)-3-(1-methyl-1H-pyrazol-4-ylamino)pyrazine-2-carboxamide]
						≤ 10	10 to 100	≤ 10	≤ 10	≤ 10	C=CC(=O)N1CCC[C@@H](Nc2cnc(C(N)=O)c(Nc3ccc(C4CCN(C5CCCC5)CC4)cc3)n2)[C@H]1C [Example E-99, 5-((2R,3R)-1-acryloyl-2-methylpiperidin-3-ylamino)-3-(4-(1-cyclopentylpiperidin-4-yl)phenylamino)pyrazine-2-carboxamide]
						≤ 10		≤ 10	≤ 10	≤ 10	C=CC(=O)N1CC[C@@H](N(C)c2cnc(C(N)=O)c(Nc3ccc(C4CCN(C)CC4)cc3)n2)C1 [Example E-115, (R)-5-((1-acryloylpyrrolidin-3-yl)(methyl)amino)-3-(4-(1-methylpiperidin-4-yl)phenylamino)pyrazine-2-carboxamide]
						≤ 10		≤ 10	10 to 100	≤ 10	C=CC(=O)N1CC[C@@H](N(C)c2cnc(C(N)=O)c(Nc3ccc(-n4nccn4)cc3)n2)C1 [Example E-116, (R)-3-(4-(2H-1,2,3-triazol-2-yl)phenylamino)-5-((1-acryloylpyrrolidin-3-yl)(methyl)amino) pyrazine-2-carboxamide]
						≤ 10		≤ 10	10 to 100	≤ 10	C=CC(=O)N1CC[C@@H](N(C)c2cnc(C(N)=O)c(Nc3ccc(-c4ncccn4)cc3)n2)C1 [Example E-117, (R)-5-((1-acryloylpyrrolidin-3-yl)(methyl)amino)-3-(4-(pyrimidin-2-yl)phenylamino)pyrazine-2-carboxamide]
						≤ 10		≤ 10	10 to 100	≤ 10	C=CC(=O)N1CC[C@@H](N(C)c2cnc(C(N)=O)c(Nc3ccc(-c4ncco4)cc3)n2)C1 [Example E-118, (R)-5-((1-acryloylpyrrolidin-3-yl)(methyl)amino)-3-(4-(oxazol-2-yl)phenylamino)pyrazine-2-carboxamide]
						≤ 10		≤ 10	10 to 100	≤ 10	C=CC(=O)N1CC[C@@H](N(C)c2cnc(C(N)=O)c(Nc3cnn(C)c3)n2)C1 [Example E-119, (R)-5-((1-acryloylpyrrolidin-3-yl)(methyl)amino)-3-(1-methyl-1H-pyrazol-4-ylamino)pyrazine-2-carboxamide]
						≤ 10		≤ 10	10 to 100	≤ 10	C=CC(=O)N1CCC[C@@H](N(C)c2cnc(C(N)=O)c(Nc3cc(C)ns3)n2)C1 [Example E-124, (R)-5-((1-acryloylpiperidin-3-yl)(methyl)amino)-3-(3-methylisothiazol-5-ylamino)pyrazine-2-carboxamide]

Structure (SMILES)	IC50 (BTK-WT; D-compounds panel data) [nM]	IC50 (LCK; [1]) [nM]	IC50 (ITK; [1]) [nM]	IC50 (EGFR; [1]) [nM]	IC50 (SRC) [nM]	IC50 (TEC; [1]) [nM]	IC50 (BTK-WT; E compounds, Table 17) [nM]	IC50 (LCK; E compounds, Table 17) [nM]	IC50 (ITK; E compounds, Table 17) [nM]	IC50 (EGFR; E compounds, Table 17) [nM]	IC50 (TEC; E compounds, Table 17) [nM]
C=CC(=O)N1CCC[C@@H](Nc2cnc(C(N)=O)c(Nc3ccc(C4(C)CCN(C5CCCC5)CC4)cc3)n2)[C@H]1C [Example E-100, 5-((2R,3R)-1-acryloyl-2-methylpiperidin-3-ylamino)-3-(4-(1-cyclopentyl-4-methylpiperidin-4-yl)phenylamino)pyrazine-2-carboxamide]							≤ 10	10 to 100	≤ 10	≤ 10	≤ 10
